From patent US12090189B2, “Polypeptide inhibitor of de novo lipogenesis in cancer cells” (University of Florida Research Foundation, Inc., priority 2018, dated 2024)
Ends that are not written are not given here.

Tests used:
[1] = test system: protein levels of ACC1, FAS and ACSS2; assay: Immunoblotting of MDA-MB-231-derived cells treated with mTOR inhibitor; assay type: cell-based, human; conditions: serum-starved 24 h, 0.1 μM for 5 h; for protein levels of ACC1, FAS and ACSS2: control or S671A-expressing cells
Description: FIGS. 6A to 6H show mutation of DAXX phosphorylation sites disrupts DAXX-SREBP2 interaction, impairs lipogenesis and tumor growth. […] The GFP-wt DAXX was transfected alone in the absence of FLAG-SREBP2 as a control (lane 7). The lysates of transfected cells were subjected to IP with an anti-FLAG antibody. Both DAXX and FLAG-SREBP2 were detected in immunoprecipitates and input lysates. […] The precipitated DNAs were subjected to qPCR with primers specific to promoter regions of the indicated genes. qPCRs for the 3′ UTR of the FASN and ACACA genes serve as negative control. […] ATRX qRT-PCR serves as a control for genes not regulated by SREBPs. […] Cells were serum-starved for 24 h. DMSO or a mTOR inhibitor (0.1 μM final concentration) was added for 5 h before cell lysis. […] RNAs were isolated from cells cultured in serum-free DMEM for 24 h as in FIG. 6D.
For immunoblotting analyses of cell lysates of monolayer cultures, medium was removed from culture plates and 1× Passive Lysis buffer (Promega) was added. The plates were frozen at −80° C. overnight and then thawed at room temperature. The lysates were transferred to a centrifuge tube. To prepare tumor lysates, xenograft tumor tissues were fragmented in the presence of liquid nitrogen, approximately 50 mg of tumor fragment was homogenized in 1 mL of 1× RIPA lysis buffer on ice using a micro-homogenizer. After brief sonication at a low power output for 5 sec on ice, the lysates were cleared by centrifugation at 13,000 rpm for 15 min at 4° C. Protein contents were quantified using a Qubit protein assay kit. Protein extracts from cell culture or tumor lysates were subjected to SDS-PAGE and electro-blotting as above.

[2] = Tolerability in tumor-bearing mice (body weights); assay type: in vivo; conditions: 25 mg/kg i.p. daily weekdays
Method: FIGS. 7A to 7E show the DAXX SIM2 peptide disrupts DAXX-SREBP interaction and suppresses tumor growth in vivo. […] The immunoprecipitates, input and supernatants were analyzed by immunoblotting. […] Mice were dosed i.p. daily weekdays for three weeks with vehicle or SIM2 (25 mg/kg). Longitudinal tumor volumes, mouse body weights, and endpoint tumor weights and images are shown. […] Protein extracts from three representative MDA-MB-231 xenograft tumors in vehicle and SIM2-treated mice were subjected to immunoblotting. HSP60 was detected as a loading control. […] Mice were dosed as in FIG. 7B. Longitudinal tumor volumes, mouse body weights, and endpoint tumor weights and tumor images are shown. […] Shown are a plot of a principal component analysis of lipid molecules detected by LC/MS, a heatmap of top lipid species, and bar graphs of relative abundance of the indicated lipid molecules. […] The p values were calculated based on Student's t-test. *: p<0.05; **: […].
For the in vivo SIM2 treatment study, MDA-MB-231 xenograft tumors were established as above and the mouse mammary tumor cell line 4T1 syngeneic tumors were established by transplanting one million cells in 100 μl of DMEM into mammary fat pads of female BALB/c mice. […] During the treatment, tumor dimensions and mouse body weights were recorded once weekly. […]

[3] = test system: MDA-MB-231 and MDA-MB-468 cells; assay: Cell internalization of TAMRA-SIM2 by microscopy; assay type: cell-based, human; conditions: TAMRA-SIM2 1 μM, 1 hour
Method: FIGS. 18A to 18I show SIM2 peptide blocks lipogenesis. […] MDA-MB-231 and MDA-MB-468 cells were exposed to TAMRA-SIM2 (1 μM) for 1 hour and visualized by microscopy. […] Fluorescence polarization assay was performed in the presence of TAMRA-SIM2 and increased concentrations of SUMO1. FIGS. 18C-18H show SIM2 blocks de novo lipogenesis in MDA-MB-231 control or DAXX OE (FIG. 18C), MDA-MB-468 (FIG. 18D), Hs578T (FIG. 18E), HCT116 (FIG. 18F), 4T1 (FIG. 18G), and CT26.CL25 (FIG. 18H). Serum-starved cells were not treated (control) or exposed to SIM2 (10 μM) and labeled with [^14C] acetate. The levels of labeled lipids were quantified. […] MDA-MB-231 control and DAXX OE cell lines were untreated (control) or treated with SIM2 (10 μM). At 24 h after treatment, RNA was isolated and subject to qRT-PCR. RNA levels were normalized against that of ACTB. The p values shown are based on t-test.

Q: For `COc1ccc(-c2ccc3c(N4CCOC[C@@H]4C)nc(N4CCOC[C@@H]4C)nc3n2)cc1CO` [AZD8055], which “protein levels of ACC1, FAS and ACSS2” value [1] is on record?
A: Neither of these inhibitors had obvious effects

Q: Which results are given for `CO[C@H]1C[C@@H]2CC[C@@H](C)[C@@](O)(O2)C(=O)C(=O)N2CCCC[C@H]2C(=O)O[C@H]([C@H](C)C[C@@H]2CC[C@@H](OC(=O)C(C)(CO)CO)[C@H](OC)C2)CC(=O)[C@H](C)/C=C(\C)[C@@H](O)[C@@H](OC)C(=O)[C@H](C)C[C@H](C)/C=C/C=C/C=C/1C` [temsirolimus]?
A: levels of ACC1 and FAS ([1]; cells expressing the S495A mutant): reduced levels of both ACC1 and FAS; protein levels of ACC1, FAS and ACSS2 [1]: Neither of these inhibitors had obvious effects

Q: With DPEEIIVLSDSD [SIM2, DPEEIIVLSDSD] as the molecule, how does the tolerability in vivo [2] read?
A: highly tolerated in vivo

Q: What about the internalization into cells [3] of the same molecule?
A: spontaneously and rapidly internalized into cells
